# Assay results taken from patent publication US20240200091A1, “USE OF PROTOPORPHYRINOGEN OXIDASE” (BEIJING DABEINONG BIOTECHNOLOGY CO., LTD., priority 2021, published 2024).
# B1: PPO8A: nucleotide sequence encoding microbial protoporphyrinogen oxidase PPO8 (SEQ ID NO:8), Arabidopsis thaliana/soybean common codon usage bias (nucleic acid)
# DNA: ATGTCAAATGAGACACAAGCCAAACAAGCTGAAACGAAACAGACTGAGTCTTCTGTCGTAAGCAAAACGCTGGTGTTGTACTCGTCCGTCGATGGTCAAACCTTAAAGATCATTAATCGTATTAAGCAGACCCTGACAGGAGAAGTTATTGTTTTGAATGTTGATGATAATCCAACTATCGATTTTAGCCTTTATCAGAAGGTCTTGATTGGAGCATCAATCCGGTATGGGAACTTTAGACCGAACATCATAAAGTTTGTTAATCAGCATAAAACACAACTTGACGCGGTGTGCAACGCTTTCTTCGTGGTTTGTCTCACAGCAAGAAAACCAGAGAAAGCTGTTCCTGAAAACAATGCATACATGAAGAAATTTGATCAGCTAAGTCAATGGCAACCTCAGTTCAAGGGAGTATTCGCGGGTGCTTTATTGTATTCACGATACAACTGGTGGCAGACACTTCTCATACAACTAATAATGAAGATGACTGGTGGCAGTACTGACAAAACTCAAGATATTGAGCTTACCGATTGGGAAAAGGTGGATTCTTTCGCACAAGACTTTGCTGCCAGGTGA
# modifications: The nucleotide sequence of PPO8A
# Experiments:
# Type in all cases: in vivo
# [1] = system: Arabidopsis thaliana T1 plants; assay: saflufenacil tolerance of transgenic Arabidopsis thaliana T1 plants (spray, grade of pesticide damage); conditions: for The grade of pesticide damage/plant: grade 0 / The grade of pesticide damage/plant: grade 1 / The grade of pesticide damage/plant: grade 2 / The grade of pesticide damage/plant: grade 3: 7 DAT, number of plants of 24 per genotype, grades
# From the text: (§1) The transformed Arabidopsis thaliana T1 plants were initially selected using glufosinate herbicide. The Arabidopsis thaliana T1 plants (PPO1A) into which the PPO1A nucleotide sequence was introduced, the Arabidopsis thaliana T1 plants (PPO2A) into which the PPO2A nucleotide sequence was introduced, the Arabidopsis thaliana T1 plants (PPO3A) into which the PPO3A nucleotide sequence was introduced, the Arabidopsis thaliana T1 plants (PPO4A) into which the PPO4A nucleotide sequence was introduced, the Arabidopsis thaliana T1 plants (PPO5A) into which the PPO5A nucleotide sequence was introduced, the Arabidopsis thaliana T1 plants (PPO6A) into which the PPO6A nucleotide sequence was introduced, the Arabidopsis thaliana T1 plants (PPO7A) into which the PPO7A nucleotide sequence was introduced, the Arabidopsis thaliana T1 plants (PPO8A) into which the PPO8A nucleotide sequence was introduced, the Arabidopsis thaliana T1 plants (PPO9A) into which the PPO9A nucleotide sequence was introduced, the Arabidopsis thaliana T1 plants (PPO10A) into which the […] nucleotide sequence was introduced, the Arabidopsis thaliana T1 plants (PPO11A) into which the PPO11A nucleotide sequence was introduced, the Arabidopsis thaliana T1 plants (PPO12A) into which the PPO12A nucleotide sequence was introduced, the Arabidopsis thaliana T1 plants (PPO13A) into which the PPO13A nucleotide sequence was introduced, the Arabidopsis thaliana T1 plants (PPO14A) into which the PPO14A nucleotide sequence was introduced, the Arabidopsis thaliana T1 plants (PPO-ATA) into which the PPO-ATA nucleotide sequence was introduced, the Arabidopsis thaliana T1 plants (PPO-APA) into which the PPO-APA nucleotide sequence was introduced, the Arabidopsis thaliana T1 plants (control vector) into which the control vector was introduced, and the wild-type Arabidopsis thaliana plants (CK) (with 24 plants being included in each genotype) (18 days after sowing) were sprayed with oxyfluorfen at three concentrations (180 g ai/ha (one-fold field concentration, 1×), 720 g ai/ha (four-fold field concentration, 4×), and 0 g ai/ha (water, 0×)), saflufenacil at three concentrations (25 g ai/ha (one-fold field concentration, 1×), 100 g ai/ha (four-fold field concentration, 4×), and 0 g ai/ha (water, 0×)), flumioxazin at three concentrations (60 g ai/ha (one-fold field concentration, 1×), 240 g ai/ha (four-fold field concentration, 4×), and 0 g ai/ha (water, 0×), and sulfentrazone at three concentrations (450 g ai/ha (one-fold field concentration, 1×), 900 g ai/ha (two-fold field concentration, 2×), and 0 g ai/ha (water, 0×) to determine the tolerance of Arabidopsis thaliana to the herbicides. After 7 days of spraying (7 DAT), the damage level of each plant caused by the herbicide was evaluated according to the average of the damage levels (%) of plants (the average of the damage levels (%) of plants=the injured leaf area/the total leaf area×[…]), i.e., the grade of pesticide damage: grade 0 means that the growth status of plants is essentially consistent with those sprayed with the blank solvent (water); grade 1 means that the average of the damage levels of plants is less than 10%; grade 2 means that the average of the damage levels of plants is greater than […]; and grade 3 means that the average of the damage levels of plants is 100%. The plants having a growth status falling within grades 0 and 1 are classified as highly resistant plants; those having a growth status falling within grade 2 are classified as poorly resistant plants; and those having a growth status falling within grade 3 are classified as non-resistant plants.
# [2] = system: Arabidopsis thaliana T1 plants; assay: oxyfluorfen tolerance of transgenic Arabidopsis thaliana T1 plants (spray, grade of pesticide damage); conditions: for The grade of pesticide damage/plant: grade 0 / The grade of pesticide damage/plant: grade 1 / The grade of pesticide damage/plant: grade 2 / The grade of pesticide damage/plant: grade 3: 7 DAT, number of plants of 24 per genotype, grades
# From the text: as §1
# [3] = system: Arabidopsis thaliana T1 plants; assay: sulfentrazone tolerance of transgenic Arabidopsis thaliana T1 plants (spray, grade of pesticide damage); conditions: for The grade of pesticide: grade 0 / The grade of pesticide: grade 1 / The grade of pesticide: grade 2 / The grade of pesticide: grade 3: 7 DAT, number of plants of 24 per genotype, grades
# From the text: as §1
# [4] = system: Arabidopsis thaliana T1 plants; assay: flumioxazin tolerance of transgenic Arabidopsis thaliana T1 plants (spray, grade of pesticide damage); conditions: for The grade of pesticide damage/plant: grade 0 / The grade of pesticide damage/plant: grade 1 / The grade of pesticide damage/plant: grade 2 / The grade of pesticide damage/plant: grade 3: 7 DAT, number of plants of 24 per genotype, grades
# From the text: as §1
# [5] = saflufenacil at four-fold field concentration, of 24 plants
Molecule,The grade of pesticide damage/plant: grade 0 ([2]; oxyfluorfen 180 g ai/ha (1×)) [plant],The grade of pesticide damage/plant: grade 1 ([2]; oxyfluorfen 180 g ai/ha (1×)) [plant],The grade of pesticide damage/plant: grade 2 ([2]; oxyfluorfen 180 g ai/ha (1×)) [plant],The grade of pesticide damage/plant: grade 3 ([2]; oxyfluorfen 180 g ai/ha (1×)) [plant],The grade of pesticide damage/plant: grade 0 ([2]; oxyfluorfen 720 g ai/ha (4×)) [plant],The grade of pesticide damage/plant: grade 1 ([2]; oxyfluorfen 720 g ai/ha (4×)) [plant],The grade of pesticide damage/plant: grade 2 ([2]; oxyfluorfen 720 g ai/ha (4×)) [plant],The grade of pesticide damage/plant: grade 3 ([2]; oxyfluorfen 720 g ai/ha (4×)) [plant],The grade of pesticide damage/plant: grade 0 ([1]; saflufenacil 25 g ai/ha (1×)) [plant],The grade of pesticide damage/plant: grade 1 ([1]; saflufenacil 25 g ai/ha (1×)) [plant],The grade of pesticide damage/plant: grade 2 ([1]; saflufenacil 25 g ai/ha (1×)) [plant],The grade of pesticide damage/plant: grade 3 ([1]; saflufenacil 25 g ai/ha (1×)) [plant],The grade of pesticide damage/plant: grade 0 ([1]; saflufenacil 100 g ai/ha (4×)) [plant],The grade of pesticide damage/plant: grade 1 ([1]; saflufenacil 100 g ai/ha (4×)) [plant],The grade of pesticide damage/plant: grade 2 ([1]; saflufenacil 100 g ai/ha (4×)) [plant],The grade of pesticide damage/plant: grade 3 ([1]; saflufenacil 100 g ai/ha (4×)) [plant],The grade of pesticide: grade 0 ([3]; sulfentrazone 450 g ai/ha (1×)),The grade of pesticide: grade 1 ([3]; sulfentrazone 450 g ai/ha (1×)),The grade of pesticide: grade 2 ([3]; sulfentrazone 450 g ai/ha (1×)),The grade of pesticide: grade 3 ([3]; sulfentrazone 450 g ai/ha (1×)),other results
"CC(C)N(C)S(=O)(=O)NC(=O)c1cc(-n2c(=O)cc(C(F)(F)F)n(C)c2=O)c(F)cc1Cl [saflufenacil, N′-[2-chloro-4-fluoro-5-(3-methyl-2,6-dioxo-4-(trifluoromethyl)-3,6-dihydro-1(2H)-pyrimidine)benzoyl]-N-isopropyl-N-methylsulfamide, reference compound]",,,,,,,,,,,,,,,,,,,,,"effective dose distinguishing sensitive plants from plants having an average level of resistance ([1]; for Arabidopsis thaliana, saflufenacil herbicide): 25 g ai/ha"
"CCOc1cc(Oc2ccc(C(F)(F)F)cc2Cl)ccc1[N+](=O)[O-] [oxyfluorfen, 2-chloro-1-(3-ethoxy-4-nitrophenoxy)-4-trifluoromethylbenzene, reference compound]",,,,,,,,,,,,,,,,,,,,,"effective dose distinguishing sensitive plants from plants having an average level of resistance ([2]; for Arabidopsis thaliana, oxyfluorfen herbicide): 180 g ai/ha"
"PPO-ATA: nucleotide sequence encoding Arabidopsis protoporphyrinogen oxidase PPO-AT (SEQ ID NO:46), Arabidopsis thaliana/soybean common codon usage bias [reference compound]",0,0,8,16,0,0,0,24,0,0,0,24,0,0,0,24,0,0,0,24,"tolerance to oxyfluorfen ([2]; oxyfluorfen at different concentrations (180 and 720 g ai/ha), compared with the control vector and CK): basically no tolerance; tolerance to saflufenacil ([1]; saflufenacil at four-fold field concentration (100 g ai/ha)): no tolerance; tolerance to saflufenacil ([1]; saflufenacil at one-fold field concentration (25 g ai/ha)): no tolerance; The grade of pesticide: grade 0 ([3]; sulfentrazone 900 g ai/ha (2×)): 0; The grade of pesticide: grade 1 ([3]; sulfentrazone 900 g ai/ha (2×)): 0; The grade of pesticide: grade 2 ([3]; sulfentrazone 900 g ai/ha (2×)): 0; The grade of pesticide: grade 3 ([3]; sulfentrazone 900 g ai/ha (2×)): 24; tolerance to sulfentrazone ([3]; sulfentrazone at different concentrations (450 and 900 g ai/ha)): no tolerance; The grade of pesticide damage/plant: grade 0 ([4]; flumioxazin 60 g ai/ha (1×)): 0 plant; The grade of pesticide damage/plant: grade 1 ([4]; flumioxazin 60 g ai/ha (1×)): 0 plant; The grade of pesticide damage/plant: grade 2 ([4]; flumioxazin 60 g ai/ha (1×)): 2 plant; The grade of pesticide damage/plant: grade 3 ([4]; flumioxazin 60 g ai/ha (1×)): 22 plant; The grade of pesticide damage/plant: grade 0 ([4]; flumioxazin 240 g ai/ha (4×)): 0 plant; The grade of pesticide damage/plant: grade 1 ([4]; flumioxazin 240 g ai/ha (4×)): 0 plant; The grade of pesticide damage/plant: grade 2 ([4]; flumioxazin 240 g ai/ha (4×)): 0 plant; The grade of pesticide damage/plant: grade 3 ([4]; flumioxazin 240 g ai/ha (4×)): 24 plant; tolerance to flumioxazin ([4]; flumioxazin at different concentrations (60 and 240 g ai/ha)): basically no tolerance"
"C#CCN1C(=O)COc2cc(F)c(N3C(=O)C4=C(CCCC4)C3=O)cc21 [flumioxazin, 2-[7-fluoro-3,4-dihydro-3-oxo-4-(2-propynyl)-2H-1,4-benzoxazin-6-yl]-4,5,6,7-tetrahydro-1H-isoindole-1,3(2H)-dione, reference compound]",,,,,,,,,,,,,,,,,,,,,"effective dose distinguishing sensitive plants from plants having an average level of resistance ([4]; for Arabidopsis thaliana, flumioxazin herbicide): 60 g ai/ha"
"Cc1nn(-c2cc(NS(C)(=O)=O)c(Cl)cc2Cl)c(=O)n1C(F)F [sulfentrazone, N-(2,4-dichloro-5-(4-difluoromethyl-4,5-dihydro-3-methyl-5-oxo-1H-1,2,4-triazole-1-yl)phenyl)methanesulfonamide, reference compound]",,,,,,,,,,,,,,,,,,,,,"effective dose distinguishing sensitive plants from plants having an average level of resistance ([3]; for Arabidopsis thaliana, sulfentrazone herbicide): 450 g ai/ha"
B1,24,0,0,0,20,4,0,0,24,0,0,0,8,14,2,0,24,0,0,0,"plants that exhibited high-resistant tolerance [1, 5]: 22 plants; plants that exhibited moderate- or poor-resistant tolerance [1, 5]: 2 plants; The grade of pesticide: grade 0 ([3]; sulfentrazone 900 g ai/ha (2×)): 22; The grade of pesticide: grade 1 ([3]; sulfentrazone 900 g ai/ha (2×)): 2; The grade of pesticide: grade 2 ([3]; sulfentrazone 900 g ai/ha (2×)): 0; The grade of pesticide: grade 3 ([3]; sulfentrazone 900 g ai/ha (2×)): 0; The grade of pesticide damage/plant: grade 0 ([4]; flumioxazin 60 g ai/ha (1×)): 24 plant; The grade of pesticide damage/plant: grade 1 ([4]; flumioxazin 60 g ai/ha (1×)): 0 plant; The grade of pesticide damage/plant: grade 2 ([4]; flumioxazin 60 g ai/ha (1×)): 0 plant; The grade of pesticide damage/plant: grade 3 ([4]; flumioxazin 60 g ai/ha (1×)): 0 plant; The grade of pesticide damage/plant: grade 0 ([4]; flumioxazin 240 g ai/ha (4×)): 23 plant; The grade of pesticide damage/plant: grade 1 ([4]; flumioxazin 240 g ai/ha (4×)): 1 plant; The grade of pesticide damage/plant: grade 2 ([4]; flumioxazin 240 g ai/ha (4×)): 0 plant; The grade of pesticide damage/plant: grade 3 ([4]; flumioxazin 240 g ai/ha (4×)): 0 plant"
